Experimental data published in patent US4091213A, “7-Cyclizedamino-3-heterothiomethyl cephalosporin derivatives” (Bristol-Myers Company, priority 1977, dated 1978).

Columns and labels:
[1] = Paper chromatograms of rat urine following IM administration, antibiotically active metabolites; assay type: in vivo; settings: urine 0-2 and 2-4 hours; for antibiotically active metabolites in urine (spots on paper chromatogram): system No. 9 (butyl acetate:n-butanol:glacial acetic acid:H2O)
Description: Paper chromatograms were run on rat urine collected between 0 and 2 and between 2 and 4 hours following IM administration of BL-S1057, 1058 and 643, for the detection of antibiotically active metabolites using descending chromatography with system No. 9 (butyl acetate:n-butanol:glacial acetic acid:H2 O = 80:15:40:24).

[2] = Paper strip chromatography; assay type: physicochemical; settings: 37° C.; 0 and 1 hour; 0.2 mg./ml.
[3] = Liquid chromatography, hydrolysis in buffer; assay type: physicochemical; settings: pH 6 buffer; 1 mg./ml.; 0 hours
Description: f. Liquid chromatography = 100% hydrolyzed in pH 6.1 buffer within 1 hour at room temperature (concentration = 1 mg./ml.)
d. Liquid chromatography (1 mg./ml. in pH 6 buffer)

Row | antibiotically active metabolites in urine (spots on paper chromatogram) [1] | hydrolysis of the derivatives to the parent compound (BL-S643) [1] | % Hydrolyzed (liquid chromatography) [3] [%] | SMILES | Paper strip chromatography [2]
1 | A single, identical spot was observed | – | – | Cc1nnc(SCC2=C(C(=O)O)N3C(=O)C(NC(=O)[C@H](N)c4ccc(O)cc4)C3SC2)s1 (some centres unmarked) [BL-S643, reference compound] | –
2 | A single, identical spot was observed | complete hydrolysis | – | Cc1nnc(SCC2=C(C(=O)O)N3C(=O)C(N4C(=O)[C@@H](c5ccc(O)cc5)NC4c4ccco4)C3SC2)s1 (some centres unmarked) [BL-S1057] | Primarily 1 zone at Rf of BL-S643
3 | A single, identical spot was observed | complete hydrolysis | 25.4 | Cc1nnc(SCC2=C(C(=O)O)N3C(=O)C(N4C(=O)[C@@H](c5ccc(O)cc5)NC4c4ccc(S(=O)(=O)O)o4)C3SC2)s1 (some centres unmarked) [BL-S1058] | Primarily 1 zone at Rf of BL-S643 at 0 and 1 hour at 37 °C (concentration is 0.2 mg./ml.) There is evidence of a second zone
